# Measurements as given in patent EP0661044A1 (priority 1991, dated 1993).
# Assay: Entrapment of daunorubicin in distearoyl phosphatidylcholine-cholesterol vesicles using ethylenediamine citrate (ion-exchange loading)
# Type: physicochemical
# Settings: lipid:drug ratio approximately at least 16:1 (mol/mol as printed); 65°C for about 10 minutes; typical value
# Method: A dry powder containing a homogenous dispersion of cholesterol and distearoylphosphatidylcholine at a 1:2 molar ratio was prepared by evaporation from a 1:1 chloroform/methanol solution. […] The lipid concentration in the resulting suspension was about 20 to 25 mg/ml. This mixture was then heated to 65°C. Next, while maintaining that temperature, the mixture was homogenized using a sonicator to produce a suspension of small unilamellar vesicles. The vesicles thus obtained had diameters principally in the range of about 40 to 80 nm with little or no particles in excess of 100 nm.
# Following homogenization, the mixture underwent a buffer exchange to remove the external, unentrapped, ethylenediamine citrate. This was accomplished by subjecting the mixture to tangential flow ultrafiltration. This process removes water and small molecular weight solutes while retaining lipid vesicles and their contents. Using this process, the lactose/ethylenediamine citrate buffer external to the vesicles was replaced with 250 mM lactose/50 mM glycine. The vesicle preparation was heated to about 65°C and an amount of daunorubicin (base or suitable salt form) was added to yield a lipid to drug ratio in the range of about 16:1 to 19:1 or more (w/w), but preferably 17.4:1. […]
smiles,measurement,value
COc1cccc2c1C(=O)c1c(O)c3c(c(O)c1C2=O)C[C@@](O)(C(C)=O)C[C@@H]3O[C@H]1C[C@H](N)[C@H](O)[C@H](C)O1 [daunorubicin],added daunorubicin vesicle entrapped as daunorubicin-citrate,greater than 90%
